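A five-concentration, 48-hour dose response in 96-well plates underlies each endpoint, interpolated linearly between surrounding concentrations. GI50: concentration for 50% inhibition of growth. TGI is the concentration that stops growth completely.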
Key:
Assay in all cases: NCI tumour cell line growth inhibition, 48 h
[1] = tested on: A549 NSCLC
[2] = tested on: CCRF-CEM leukemia
[3] = tested on: HCT-15 colon
[4] = tested on: K-562 leukemia
[5] = tested on: OVCAR-3 ovarian
[6] = tested on: OVCAR-8 ovarian
[7] = tested on: SN12C renal
[8] = tested on: UACC-257 melanoma
[9] = tested on: UO-31 renal
[10] = tested on: EKVX NSCLC

| SMILES | GI50 [1] [µM] | TGI [1] [µM] | GI50 [2] [µM] | TGI [2] [µM] | GI50 [3] [µM] | TGI [3] [µM] | GI50 [4] [µM] | TGI [4] [µM] | GI50 [5] [µM] | TGI [5] [µM] | GI50 [6] [µM] | TGI [6] [µM] | GI50 [7] [µM] | TGI [7] [µM] | GI50 [8] [µM] | TGI [8] [µM] | GI50 [9] [µM] | TGI [9] [µM] | TGI [10] [µM] | GI50 [10] [µM] |
| --- | --- | --- | --- | --- | --- | --- | --- | --- | --- | --- | --- | --- | --- | --- | --- | --- | --- | --- | --- | --- |
| O=Cc1ccc(-c2ccc(-c3ccc(C=O)o3)[se]2)o1 | > 100 | > 100 | > 100 | > 100 | > 80 | > 100 | > 100 | > 100 | > 100 | > 100 | > 100 | > 100 | > 100 | > 100 | > 100 | > 100 | > 100 | > 100 | – | – |
| Cn1c(=O)c2[nH]c(CCCc3ccc([N+](=O)[O-])cc3)nc2n(C)c1=O | – | > 100 | – | – | – | > 100 | – | > 100 | – | > 100 | – | > 100 | – | > 100 | – | > 100 | – | > 100 | > 100 | – |
| Cn1c2cc([N+](=O)[O-])ccc2c(=O)c2c(O)cc3c(c21)C=CC(C)(C)O3 | – | > 100 | – | > 100 | – | > 100 | – | > 100 | – | – | – | > 100 | – | > 100 | – | > 100 | – | 67.6 | > 100 | – |
| CS(=N)(=O)CCC(N)P(=O)(O)O (stereo not given) | – | > 100 | – | – | – | > 100 | – | > 100 | – | > 100 | – | > 100 | – | > 100 | – | > 100 | – | > 100 | > 100 | – |
| COC1=CC(=O)OC(/C=C(C)/C=C/C2=C(C)CCCC2(C)C)C1 (stereo not given) | – | > 100 | – | > 100 | – | – | – | > 100 | – | > 100 | – | > 100 | – | > 100 | – | > 100 | – | > 100 | > 100 | – |
| COC(=O)c1nc(C(=O)OC)c2c([nH]c3ccccc32)c1C(=O)OC | – | > 100 | – | > 100 | – | > 100 | – | – | – | > 100 | – | > 100 | – | > 100 | – | > 100 | – | 75.9 | – | – |
| C=C1c2[nH]c3ccccc3c2CC(C(=O)O)N1C(O)c1ccc(S(=O)(=O)O)cc1 (stereo not given) | – | > 100 | – | > 100 | – | – | – | > 100 | – | > 100 | – | > 100 | – | > 100 | – | > 100 | – | > 100 | – | – |
| COc1cc(/C=C/C(=O)c2c(C)nc3ccccc3c2C)ccc1OCCCCOc1cc2c(cc1OC)C(=O)N1CCC[C@H]1C=N2 | 0.46 | 4.17 | 0.225 | 1.48 | 1.71 | 5.18 | – | – | 0.217 | 0.631 | 0.245 | 0.703 | 0.509 | 9.87 | 0.261 | 0.822 | 0.252 | 1.08 | 3.56 | 1.74 |
| O=C1C(=C([O-])c2ccccc2)C(=O)c2ccccc21.O=C1C(=C([O-])c2ccccc2)C(=O)c2ccccc21.[Co+2] | > 100 | > 100 | 38.6 | > 100 | – | – | > 100 | > 100 | 75.1 | > 100 | > 100 | > 100 | > 100 | > 100 | 90.8 | > 100 | > 100 | > 100 | > 100 | > 100 |
| CC(=O)Oc1c(Br)ccc2cc(C(Br)Br)c(C(=O)c3ccccc3)nc12 | – | 43.4 | – | – | – | 44.2 | – | 44.1 | – | – | – | 53 | – | 45.6 | – | 8.87 | – | 35.9 | 39.4 | – |
| CC(C)OCc1cc(CN2CCN(c3cccc(Cl)c3)CC2)c(O)c2ncccc12 | 0.512 | 11.9 | 0.383 | 9.89 | 0.153 | 17.6 | 0.349 | 10.3 | 0.451 | 14.8 | 0.367 | 11.6 | 0.917 | 15.6 | 1.56 | 9.58 | 0.24 | 1.38 | – | – |
| O=c1[nH]c2ccccc2n2cc3ccccc3c12 | 5.9 | 32.2 | 5.93 | 60.5 | 3.31 | 18.6 | – | – | 18.6 | 36.7 | 5.28 | 33.3 | 1.67 | 6.32 | 15.3 | 33.1 | 12.6 | 26.6 | 69.4 | 4.74 |
| N#Cc1c2ccccc2c2nnc3ccc(C(F)(F)F)cc3n12 | 26.9 | > 100 | 71 | > 100 | 40.6 | > 100 | 59.9 | > 100 | 38.2 | > 100 | 43.8 | > 100 | > 100 | > 100 | 21.2 | 76.3 | 85.6 | > 100 | – | – |
| NC(=O)CCc1ccccc1Oc1nccc(-c2c(-c3ccc(F)cc3)ncn2C2CCNCC2)n1 | > 25 | > 25 | – | – | > 25 | > 25 | > 25 | > 25 | > 25 | > 25 | > 25 | > 25 | > 25 | > 25 | – | – | > 25 | > 25 | > 25 | > 25 |
| O=C1/C(=C\c2ccccc2)CN(C(=O)c2ccccc2)C/C1=C\c1ccccc1 | 3.63 | 16.3 | 1.43 | 6.49 | 2.02 | 5.9 | 1.67 | > 100 | 2.69 | 6.34 | 2.96 | 11.1 | 1.9 | 4.31 | 2 | 5.16 | 1.7 | 3.92 | – | – |
| O=c1nc(N2CCCC2)nc(N2CCCC2)s1 | – | > 100 | – | > 100 | – | > 100 | – | > 100 | – | – | – | > 100 | – | > 100 | – | > 100 | – | > 100 | > 100 | – |
| N#Cc1c(-c2ccccc2)cc(-c2cccs2)c(C#N)c1N | – | > 100 | – | > 100 | – | > 100 | – | > 100 | – | > 100 | – | > 100 | – | > 100 | – | > 100 | – | – | > 100 | – |

From PubChem BioAssay (NCI)
